# Laboratory results taken from ChEMBL document CHEMBL4627258, “Photo effect on the CD1d-binding ability of azobenzene-attached analogues of α-GalCer” (Bioorg Med Chem Lett, 2020).
# Columns and labels:
# Type in all cases: protein assay
# [1] = target: T1, Antigen-presenting glycoprotein CD1d (Mus musculus) (UniProt P11609+P11610); assay: Binding affinity to WTB6 mouse thymus CD1d assessed as restriction ratio for reduction in iNKT/CD1d interaction by FACS analysis relative to control
# [2] = target: T1, Antigen-presenting glycoprotein CD1d (Mus musculus); assay: Binding affinity to WTB6 mouse spleen CD1d assessed as restriction ratio for reduction in iNKT/CD1d interaction by FACS analysis relative to control
# [3] = target: T1, Antigen-presenting glycoprotein CD1d (Mus musculus); assay: Binding affinity to CD1d in Traj18 knock out C57BL/6 mouse assessed as restriction ratio for reduction in iNKT/CD1d interaction by FACS analysis relative to control
SMILES,Ratio [1] [%],Ratio [2] [%],Ratio [3] [%]
CCCCCCCCCCCCCC[C@@H](O)[C@@H](O)[C@H](CO[C@H]1O[C@H](CO)[C@H](O)[C@H](O)[C@H]1O)NC(=O)CCCCOc1ccc(/N=N\c2ccccc2)cc1,0.05,0.05,0.57
CCCCCCCCCCCCCC[C@@H](O)[C@@H](O)[C@H](CO[C@H]1O[C@H](CO)[C@H](O)[C@H](O)[C@H]1O)NC(=O)CCCCCCOc1ccc(/N=N\c2ccccc2)cc1,0.4,0.42,< 0.02
CCCCCCCCCCCCCC[C@@H](O)[C@@H](O)[C@H](CO[C@H]1O[C@H](CO)[C@H](O)[C@H](O)[C@H]1O)NC(=O)CCCCCCOc1ccc(/N=N/c2ccccc2)cc1,0.35,0.31,< 0.02
CCCCCCCCCCCCCC[C@@H](O)[C@@H](O)[C@H](CO[C@H]1O[C@H](CO)[C@H](O)[C@H](O)[C@H]1O)NC(=O)CCCCCCCCCCOc1ccc(/N=N\c2ccccc2)cc1,0.44,0.57,< 0.02
CCCCCCCCCCCCCC[C@@H](O)[C@@H](O)[C@H](CO[C@H]1O[C@H](CO)[C@H](O)[C@H](O)[C@H]1O)NC(=O)CCCCCCCCOc1ccc(/N=N/c2ccccc2)cc1,0.28,0.4,< 0.02
CCCCCCCCCCCCCC[C@@H](O)[C@@H](O)[C@H](CO[C@H]1O[C@H](CO)[C@H](O)[C@H](O)[C@H]1O)NC(=O)CCCCCCCCCCOc1ccc(/N=N/c2ccccc2)cc1,0.36,0.5,< 0.02
CCCCCCCCCCCCCCCCCCCCCCCCCC(=O)N[C@@H](CO[C@H]1O[C@H](CO)[C@H](O)[C@H](O)[C@H]1O)[C@H](O)[C@H](O)CCCCCCCCCCCCCC,0.45,0.66,< 0.02
CCCCCCCCCCCCCC[C@@H](O)[C@@H](O)[C@H](CO[C@H]1O[C@H](CO)[C@H](O)[C@H](O)[C@H]1O)NC(=O)CCCCOc1ccc(/N=N/c2ccccc2)cc1,0.09,0.06,0.28
CCCCCCCCCCCCCC[C@@H](O)[C@@H](O)[C@H](CO[C@H]1O[C@H](CO)[C@H](O)[C@H](O)[C@H]1O)NC(=O)CCCCCCCCOc1ccc(/N=N\c2ccccc2)cc1,0.37,0.48,< 0.02
